#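 Values below derive from 48-hour exposures of cells grown in 96-well plates, with endpoints linearly interpolated between the two concentrations bracketing the appropriate inhibition level. Here, GI50 denotes the concentration required for 50% inhibition of growth. TGI denotes the concentration required for complete inhibition of growth.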
# Experiments:
# Test in all cases: NCI-60 cell line screen, 48 h
# RXF 393 renal = system: RXF 393 renal
# UO-31 renal = system: UO-31 renal
# MALME-3M melanoma = system: MALME-3M melanoma
# M14 melanoma = system: M14 melanoma
# UACC-257 melanoma = system: UACC-257 melanoma
# SN12C renal = system: SN12C renal
# HCT-15 colon = system: HCT-15 colon
# CAKI-1 renal = system: CAKI-1 renal
# 786-0 renal = system: 786-0 renal
# RPMI-8226 leukemia = system: RPMI-8226 leukemia
# NCI-H226 lung = system: NCI-H226 lung
# SK-MEL-5 melanoma = system: SK-MEL-5 melanoma
# OVCAR-8 ovarian = system: OVCAR-8 ovarian
# OVCAR-5 ovarian = system: OVCAR-5 ovarian
# SF-295 CNS = system: SF-295 CNS
# SK-MEL-28 melanoma = system: SK-MEL-28 melanoma
# NCI-H460 lung = system: NCI-H460 lung
# NCI-H522 lung = system: NCI-H522 lung
# IGROV1 ovarian = system: IGROV1 ovarian
# SR leukemia = system: SR leukemia
# COLO 205 colon = system: COLO 205 colon
# SNB-75 CNS = system: SNB-75 CNS
# K-562 leukemia = system: K-562 leukemia
# SF-268 CNS = system: SF-268 CNS
# MOLT-4 leukemia = system: MOLT-4 leukemia
# HOP-62 NSCLC = system: HOP-62 NSCLC
# U251 CNS = system: U251 CNS
smiles,measurement,setting,value
Cc1cc(Nc2nc(-c3cn(-c4ccc(Cl)cc4)nn3)nc3ccccc23)n[nH]1,GI50,RXF 393 renal,5.09 µM
same,TGI,RXF 393 renal,26.1 µM
same,GI50,UO-31 renal,1.65 µM
same,TGI,UO-31 renal,11.3 µM
same,GI50,MALME-3M melanoma,10.8 µM
same,TGI,MALME-3M melanoma,30.1 µM
same,GI50,M14 melanoma,7.54 µM
same,TGI,M14 melanoma,> 50 µM
same,GI50,UACC-257 melanoma,33.4 µM
same,TGI,UACC-257 melanoma,> 50 µM
same,GI50,SN12C renal,10.7 µM
same,TGI,SN12C renal,> 50 µM
same,GI50,HCT-15 colon,2.17 µM
same,TGI,HCT-15 colon,> 50 µM
same,GI50,CAKI-1 renal,2.31 µM
same,TGI,CAKI-1 renal,14.7 µM
same,GI50,786-0 renal,15.1 µM
same,TGI,786-0 renal,> 50 µM
same,GI50,RPMI-8226 leukemia,19.6 µM
same,TGI,RPMI-8226 leukemia,> 50 µM
same,GI50,NCI-H226 lung,> 50 µM
same,TGI,NCI-H226 lung,> 50 µM
same,GI50,SK-MEL-5 melanoma,20.8 µM
same,TGI,SK-MEL-5 melanoma,> 50 µM
same,GI50,OVCAR-8 ovarian,18.5 µM
same,TGI,OVCAR-8 ovarian,> 50 µM
same,GI50,OVCAR-5 ovarian,> 50 µM
same,TGI,OVCAR-5 ovarian,> 50 µM
same,GI50,SF-295 CNS,7.6 µM
same,TGI,SF-295 CNS,38.5 µM
same,GI50,SK-MEL-28 melanoma,21.9 µM
same,TGI,SK-MEL-28 melanoma,> 50 µM
same,GI50,NCI-H460 lung,5.65 µM
same,TGI,NCI-H460 lung,36.3 µM
same,GI50,NCI-H522 lung,> 50 µM
same,TGI,NCI-H522 lung,> 50 µM
same,GI50,IGROV1 ovarian,9.16 µM
same,TGI,IGROV1 ovarian,> 50 µM
same,GI50,SR leukemia,8.78 µM
same,TGI,SR leukemia,40 µM
same,GI50,COLO 205 colon,38.2 µM
same,TGI,COLO 205 colon,> 50 µM
same,GI50,SNB-75 CNS,23 µM
same,TGI,SNB-75 CNS,> 50 µM
same,GI50,K-562 leukemia,25.8 µM
same,TGI,K-562 leukemia,> 50 µM
same,GI50,SF-268 CNS,14.6 µM
same,TGI,SF-268 CNS,> 50 µM
same,GI50,MOLT-4 leukemia,22 µM
same,TGI,MOLT-4 leukemia,> 50 µM
same,GI50,HOP-62 NSCLC,14 µM
same,TGI,HOP-62 NSCLC,> 50 µM
same,GI50,U251 CNS,9.39 µM
same,TGI,U251 CNS,> 50 µM
